The source of these data is patent US11560370B1, “5-membered heteroaryl carboxamide compounds for treatment of HBV” (Assembly Biosciences, Inc., priority 2018, dated 2023).

A word on the EC50: it is the concentration that produces a half-maximal response.

Read-outs that look alike come from different tables or passages of the source.

The subject of the experiment is HBV. The experiment is described as follows: Viral production from HepAD38 cells, viral load by qPCR of HBV core sequence. To be noted: 5 days, supernatant HBV DNA by qPCR, read-out: Viral Load EC50 Activity range. The format is cell-based. As to the method:
Assay Measuring Activity of Test Compounds on Viral Production from HepAD38 Cells
HepAD38 cells grown in a T-150 flask (Corning, cat #: 430825) with Growth Medium (DMEM/F12 (1:1) (Hyclone, cat #: SH30023.02), 1× Pen/Strep (Invitrogen, cat #: 15140-122), 10% FBS (Tissue Culture Biologics, cat #: 101), 250 μg/mL G418 (Alfa Aesar, cat #: J62671), 1 μg/mL Tetracycline (Teknova, cat #: T3320)) were detached with 0.25% trypsin-EDTA to (Invitrogen, cat #: 25200-056). Tetracycline-free treatment medium (15 mL DMEM/F12 (1:1) 1× Pen/step, with 2% FBS, Tet-system approved (Clontech, cat #: 631106) were then added to mix, transferred into a 50 ml conical tube (Falcon, cat #: 21008-918,) and spun at 1300 rpm for 5 min. Pelleted cells were then re-suspended/washed with 50 mL of 1×DPBS (Invitrogen, cat #: 14190-136) 2 times and 50 mL treatment medium twice. HepAD38 cells were then re-suspended with 10 mL of treatment medium, syringed and counted. Wells of 96-well clear bottom TC plate (Corning, cat #: 3904,) were seeded at 50,000 cells/well in 180 μL of treatment medium, and 20 μL of either 10% DMSO (Sigma, cat #: D4540) as controls or a 10× solution of test compounds in 10% DMSO in treatment media was added for a final compound concentration starting at 10 μM, and plates were incubated in 5% CO2 incubator at 37° C. for 5 days.
Subsequently viral load production was assayed by quantitative PCR (qPCR) of the HBV core sequence. PCR reaction mixture containing forward primers HBV-f 5′-CTGTGCCTTGGGTGGCTTT-3′ (IDT DNA), Reverse primers HBV-r 5′-[…]-3′ (IDT DNA), Fluorescent TaqMan™ Probes HBV-probe 5′-FAM/AGCTCCAAA/ZEN/[…]/3IABkFQ-3′ (IDT DNA), 10 μL/well of PerfeCTa® qPCR ToughMix® (Quanta Biosciences, Cat #: 95114-05K), and 6 μL/well of DEPC water (Alfa Aesar, cat #: J62087) was prepared. […] of supernatant was added to 16 μL of the reaction mixture in a qPCR plate (Applied Biosytems, Cat #: 4309849), sealed with a film (Applied Biosystems, Cat #: 4311971), centrifuged for a few seconds, and subsequently run on an Applied Biosystems VIIA7. The PCR mixture was incubated at 45° C. for 5 min, then 95° C. for 10 min, followed by 40 cycles of 10 seconds at 95° C. and 20 seconds at 60° C. Viral load was quantified against known HBV DNA standards by using ViiA™ 7 Software. Viral load in the supernatant from wells with treated cells were compared against viral load in supernatant from DMSO control wells (>3 per plate). Cell viability assay was performed with CellTiter-Glo Luminescent Cell Viability Assay (Promega, cat #: G7573) with modification. Mixed appropriate amount of CellTiter-Glo (CTG) 1×DPBS in a 1:1 ratio, added 100 uL of the mixture to each well followed completely removal of all supernatant in each well without touching cell surface. Incubated the plate at room temperature for 10 min on an orbital shaker, and then read the plate with a plate reader (TECAN M1000 or Envision). EC50 or CC50 values were calculated through curve-fitting of the four-parameter nonlinear-logistic-regression model (GraphPad Prism or Dotmatics). CC50 values were all >10 μM.
A general note: In qPCR the cycle at which signal appears reflects the starting amount.

Setting [1] is: Hepatitis B virus, HePAD38, 120 h.

As to `Cn1nc(C2CC3CC(NCCO)CC3C2)c(C(=O)Nc2ccc(F)c(Cl)c2)c1N` (stereo not drawn) [AIA-103, 5-Amino-N-(3-chloro-4-fluorophenyl)-3-(5-((2-hydroxyethyl)amino)octahydropentalen-2-yl)-1-methyl-1H-pyrazole-4-carboxamide], the EC50 under setting [1] was in the range of 100 to 500 nM.
Turning to `COc1cc(-c2cnn(C)c2)ccc1C1CCC(c2nn(C)c(N)c2C(=O)Nc2ccc(F)c(Cl)c2)C1` (stereo not drawn) [AIA-369, 5-Amino-N-(3-chloro-4-fluorophenyl)-3-(3-(2-methoxy-4-(1-methyl-1H-pyrazol-4-yl)phenyl)cyclopentyl)-1-methyl-1H-pyrazole-4-carboxamide], under setting [1], the EC50 lay within 100 to 500 nM.
In the case of `CCOC(=O)CC1CC2CC(c3nn(C)c(N)c3C(=O)Nc3ccc(F)c(Cl)c3)CC2C1` (stereo not drawn) [AIA-018], the EC50 is less than 100 nM.
With `COc1cccc([C@H]2CC[C@H](c3nn(C)c(N)c3C(=O)Nc3ccc(F)c(Cl)c3)C2)c1` [AIA-276C], the concentration for a half-maximal effect (EC50) was less than 100 nM.
As to `COc1ccccc1C1CCC(c2nn(C)c(N)c2C(=O)Nc2ccc(F)c(Cl)c2)C1` (single isomer, unassigned) [AIA-275B, 5-Amino-N-(3-chloro-4-fluorophenyl)-3-(3-(2-methoxyphenyl)cyclopentyl)-1-methyl-1H-pyrazole-4-carboxamide], the EC50 was 100 to 500 nM.
As to `CC(C)C1(O)CC2C[C@@H](c3nn(C)c(N)c3C(=O)Nc3ccc(F)c(Cl)c3)C[C@H]2C1O` (stereo partly drawn) [AIA-257-1], the concentration giving a half-maximal response (EC50) was less than 100 nM.
As for `CNC(=O)C1CC2CC(c3nn(C)c(N)c3C(=O)Nc3ccc(F)c(Cl)c3)CC2C1` (stereo not drawn) [AIA-016, 5-Amino-N-(3-chloro-4-fluorophenyl)-1-methyl-3-(5-(methylcarbamoyl)octahydropentalen-2-yl)-1H-pyrazole-4-carboxamide], the EC50 under setting [1] was less than 100 nM.
On to `Cn1nc(C2CC3CC(C(N)=O)CC3C2)c(C(=O)Nc2ccc(F)c(Cl)c2)c1N` (stereo not drawn) [AIA-015], for which the EC50 was less than 100 nM.
As to `CN(C)c1ccc(C2CCC(c3nn(C)c(N)c3C(=O)Nc3ccc(F)c(Cl)c3)C2)cc1` (stereo not drawn) [AIA-293, 5-Amino-N-(3-chloro-4-fluorophenyl)-3-(3-(4-(dimethylamino)phenyl)cyclopentyl)-1-methyl-1H-pyrazole-4-carboxamide], the EC50 under setting [1] is less than 100 nM.
On to `Cn1nc(C2CCC(c3csc(C(F)(F)F)n3)C2)c(C(=O)Nc2ccc(F)c(Cl)c2)c1N` (stereo not drawn) [AIA-355, 5-Amino-N-(3-chloro-4-fluorophenyl)-1-methyl-3-(3-(2-(trifluoromethyl)thiazol-4-yl)cyclopentyl)-1H-pyrazole-4-carboxamide], for which the EC50 under setting [1] lay within 500 to 10000 nM.
For “5-Amino-N-(3-chloro-4-fluorophenyl)-1-methyl-3-(3-(pyridin-4-yl)cyclopentyl)-1H-pyrazole-4-carboxamide [AIA-271]”, the concentration giving a half-maximal response (EC50) is less than 100 nM.
Regarding `CC(C)OCC1(O)CC2CC(c3nn(C)c(N)c3C(=O)Nc3ccc(F)c(Cl)c3)CC2C1` (single isomer, unassigned) [AIA-339-1, 5-Amino-N-(3-chloro-4-fluorophenyl)-3-(5-hydroxy-5-(isopropoxymethyl)octahydropentalen-2-yl)-1-methyl-1H-pyrazole-4-carboxamide], the concentration giving a half-maximal response (EC50) is 500 to 10000 nM.
`Cn1nc(C2CC3CC([S+](C)[O-])CC3C2)c(C(=O)Nc2ccc(F)c(Cl)c2)c1N` (stereo not drawn) [AIA-074]: the concentration giving a half-maximal response (EC50) is less than 100 nM.
Consider `Cn1nc(C2CC3CC(N4CCNC(=O)C4)CC3C2)c(C(=O)Nc2ccc(F)c(C#N)c2)c1N` (stereo not drawn) [AIA-246, 5-Amino-N-(3-cyano-4-fluorophenyl)-1-methyl-3-(5-(3-oxopiperazin-l-yl)octahydropentalen-2-yl)-1H-pyrazole-4-carboxamide], for which the EC50 under setting [1] is less than 100 nM.
Consider `CCS(=O)(=O)C1CC2CC(c3nn(C)c(N)c3C(=O)Nc3ccc(F)c(Cl)c3)CC2C1` (stereo not drawn) [AIA-031, 5-Amino-N-(3-chloro-4-fluorophenyl)-3-(5-(ethylsulfonyl)octahydropentalen-2-yl)-1-methyl-1H-pyrazole-4-carboxamide], for which, under setting [1], the EC50 is less than 100 nM.
Take `CC(=O)N1CC2CC(c3nn(C)c(N)c3C(=O)Nc3ccc(F)c(Cl)c3)CC2C1` (stereo not drawn) [AIA-007]: the 50% effective concentration (EC50) was less than 100 nM.
For the molecule `Cn1nc(C2CCC(c3ccccc3Cl)C2)c(C(=O)Nc2ccc(F)c(Cl)c2)c1N` (stereo not drawn) [AIA-272, 5-Amino-N-(3-chloro-4-fluorophenyl)-3-(3-(2-chlorophenyl)cyclopentyl)-1-methyl-1H-pyrazole-4-carboxamide], the EC50 under setting [1] was less than 100 nM.
On to `Cn1nc(C2CC3C[S+]([O-])CC3C2)c(C(=O)Nc2ccc(F)c(Cl)c2)c1N` (single isomer, unassigned) [AIA-056-B, 5-Amino-N-(3-chloro-4-fluorophenyl)-1-methyl-3-(2-oxidohexahydro-1H-cyclopenta[c]thiophen-5-yl)-1H-pyrazole-4-carboxamide], for which the concentration giving a half-maximal response (EC50) lay within 500 to 10000 nM.
On to `CCN(CC)C1CC2CC(c3nn(C)c(N)c3C(=O)Nc3ccc(F)c(Cl)c3)CC2C1` (stereo not drawn) [AIA-012, 5-Amino-N-(3-chloro-4-fluorophenyl)-3-(5-(diethylamino)octahydropentalen-2-yl)-1-methyl-1H-pyrazole-4-carboxamide], for which, under setting [1], the concentration giving a half-maximal response (EC50) lay within 100 to 500 nM.
For `Cn1nc(C2CCC(c3ccc(Cl)cc3)C2)c(C(=O)Nc2ccc(F)c(Cl)c2)c1N` (stereo not drawn) [AIA-274, 5-Amino-N-(3-chloro-4-fluorophenyl)-3-(3-(4-chlorophenyl)cyclopentyl)-1-methyl-1H-pyrazole-4-carboxamide], the EC50 under setting [1] was in the range of 100 to 500 nM.
`Cn1nc(C2CC3CC(N4CCOCC4)CC3C2)c(C(=O)Nc2ccc(F)c(Cl)c2)c1N` (stereo not drawn) [AIA-041, 5-Amino-N-(3-chloro-4-fluorophenyl)-1-methyl-3-(5-morpholinooctahydropentalen-2-yl)-1H-pyrazole-4-carboxamide]: the 50% effective concentration (EC50) under setting [1] is less than 100 nM.
On the same count and under the same terms, to `COc1cc(-c2c[nH]cn2)ccc1C1CCC(c2nn(C)c(N)c2C(=O)Nc2ccc(F)c(Cl)c2)C1` (stereo not drawn) [AIA-366-1, 3-(3-(4-(1H-Imidazol-4-yl)-2-methoxyphenyl)cyclopentyl)-5-amino-N-(3-chloro-4-fluorophenyl)-1-methyl-1H-pyrazole-4-carboxamide] belongs 100 to 500 nM.
On to `Cn1nc(C2CCC(c3ccccc3)C2)c(C(=O)Nc2ccc(F)c(Cl)c2)c1N` (single isomer, unassigned) [AIA-202C, 5-Amino-N-(3-chloro-4-fluorophenyl)-1-methyl-3-(3-phenylcyclopentyl)-1H-pyrazole-4-carboxamide], for which the concentration giving a half-maximal response (EC50) lay in the range of 500 to 10000 nM.
As for `CN(C1CC2CC(c3nn(C)c(N)c3C(=O)Nc3ccc(F)c(Cl)c3)CC2C1)S(C)(=O)=O` (stereo not drawn) [AIA-043], the concentration for a half-maximal effect (EC50) is less than 100 nM.
With `COc1cc(C(=O)NCCS(C)(=O)=O)ccc1C1CCC(c2nn(C)c(N)c2C(=O)Nc2ccc(F)c(Cl)c2)C1` (stereo not drawn) [AIA-387-1], the 50% effective concentration (EC50) under setting [1] is 100 to 500 nM.
`CN(C)C(=O)CC1CC2CC(c3nn(C)c(N)c3C(=O)Nc3ccc(F)c(Cl)c3)CC2C1` (stereo not drawn) [AIA-020, 5-Amino-N-(3-chloro-4-fluorophenyl)-3-(5-(2-(dimethylamino)-2-oxoethyl)octahydropentalen-2-yl)-1-methyl-1H-pyrazole-4-carboxamide]: the 50% effective concentration (EC50) under setting [1] is less than 100 nM.
Turning to `Cn1nc([C@@H]2CC[C@@H](c3cnc(C(F)(F)F)s3)C2)c(C(=O)Nc2ccc(F)c(Cl)c2)c1N` [AIA-354, 5-Amino-N-(3-chloro-4-fluorophenyl)-1-methyl-3-((1R,3R)-3-(2-(trifluoromethyl)thiazol-5-yl)cyclopentyl)-1H-pyrazole-4-carboxamide], the concentration giving a half-maximal response (EC50) under setting [1] lay within 500 to 10000 nM.
